Laboratory results reported in patent publication US10039770B2, “Prostaglandin F2Alpha and analogues thereof for treating atrophic cutaneous scarring” (Galderma S.A., priority 2013, dated 2018).

Key:
synovial fibroblast = conditions: in culture; cited from earlier work
skin (Sc)fibroblasts = conditions: exogenous administration; mice with a mutated form of α2AP; cited from earlier work
atrophic cutaneous scar = assay: Topical treatment of an atrophic cutaneous scar in a human (case example); assay type: in vivo; conditions: aqueous solution 0.004% topical once daily
Description: FIG. 1 A. depicts a 6 month old atrophic cutaneous scar secondary to dermatologic surgery present on the abdomen of a person prior to treatment. During the 3 to 4 months prior to starting topical treatment with PGF 2α analog, the scar had not qualitatively changed in structure or appearance. […] The scar was then treated with an aqueous solution of topical travoprost 0.004% which was digitally massaged onto the scar surface once daily for several weeks. FIGS. 1B through J depict the appearance of the same scar at one week intervals during the treatment period.

| Compound | synovial fibroblast collagen production, cell proliferation and cell migration (synovial fibroblast) | bleomycin-induced collagen production / fibrosis in mutant (Sc)fibroblast strain (skin (Sc)fibroblasts) | Langer lines across the previously scarred skin (atrophic cutaneous scar; at 8 weeks) | surrounding skin: keloid formation, atrophy or pigmentation (atrophic cutaneous scar; at all time points) | other adverse reactions (atrophic cutaneous scar; during or after the treatment interval) | erythema of the scar (atrophic cutaneous scar; over 9 weeks of treatment) | transition of the border between the scar tissue and normal surrounding skin (atrophic cutaneous scar; over 9 weeks of treatment) | fibrosis and thickening of the atrophic areas of the scar (atrophic cutaneous scar; person, abdominal scar, over 9 weeks of treatment) |
| --- | --- | --- | --- | --- | --- | --- | --- | --- |
| Prostaglandin F 2α [PGF 2α] | stimulated | reversed the attenuation and this resulted in dermal thickening and fibrosis |  |  |  |  |  |  |
| transforming growth factor β | not |  |  |  |  |  |  |  |
| CC(C)OC(=O)CCC/C=C\C[C@@H]1[C@@H](/C=C/[C@@H](O)COc2cccc(C(F)(F)F)c2)[C@H](O)C[C@@H]1O [travoprost] |  |  | normal appearing Langer lines are apparent | no evidence of keloid formation, atrophy or pigmentation | No other adverse reactions were noted | decrease in erythema | visibly smoother transition of the border between the scar tissue and normal surrounding skin | gradual increase in fibrosis and thickening of the atrophic areas of the scar |
